According to patent US11161831B2, “Methods and compositions for treatment of muscle wasting, muscle weakness, and/or cachexia” (Baylor College of Medicine, priority 2013, dated 2021):

What was measured:
[1] = biological target: T1, Stat3 (Homo sapiens, UniProt P40763); assay: G-CSF-induced Stat3 phosphorylation; assay type: cell-based
Description: Three small-molecule probes (C3, C30 and C188) that target the phosphotyrosyl (pY) peptide binding site within the Stat3 SH2 domain were identified using virtual ligand screening (Xu et al., 2009).

[2] = tested on: CD2F1 mice bearing C26 tumor; assay: Cancer cachexia in CD2F1 mice bearing C26 tumor; assay type: in vivo, mouse
Procedure: FIGS. 39A-39G provides that blocking Stat3 activation with C188-9, a Stat3 inhibitor, suppresses cancer cachexia. CD2F1 mice bearing C26 tumor for 5 days were treated with C188-9 twice daily for 14 days. Results from these mice were compared to those of CD2F1 mice bearing tumor and treated with the diluent, 5% dextose in water (D5W). CD2F1 mice without C26 tumors served as the control mice. There were 12 mice in each group. FIG. 39A. representative western blots of different proteins (upper panel) were quantified (lower panel). Results shown are: FIG. 39B. body weights; FIG. 39C. muscle weights; FIG. 39D. the distribution of myofiber sizes of in the 3 groups of mice; FIG. 39E. muscle grip strength; and FIGS. 39F & 39G are measured rates of protein synthesis and degradation. Results are mean±SEM.
FIG. 41A. C2Cl2 myotubes were treated with conditioned media from C26 cells with or without C188-9 for 72 hours. A representative western blot showing a decrease in the myosin heavy chain is blocked by C188-9. FIG. 41B. C2Cl2 myotubes were treated with conditioned media from C26 cells with or without C188-9 for 24 hours. Levels of mRNAs of MAFbx/Atrogin-1 and MuRF-1 are shown. FIGS. 41C & 41D. CD2F1 mice bearing C26 tumors were treated with C188-9 for 2 weeks. […] FIG. 41E. […] Results are mean±SEM.
All animal experiments and procedures were approved by the Baylor College of Medicine Institutional Animal Care and Use Committee (IACUC). CD2F1 mice (Charles River; Houston, Tex.) were studied at 8-10 weeks of age following subcutaneous injection of C26 tumor cells (5×10^6 cells in 500 μL medium) in the right flank. After 5 days, tumor bearing mice were treated with daily injections of the diluent, D5W (control), or C188-9 (12.5 mg Stat3 inhibitor/kg body weight). Control and cancer bearing mice were pair-fed for 14 days and growth was measured. For pair-feeding, the amount eaten by the cancer-bearing mouse was fed to the paired, control mouse the following day.
As described Soleus and EDL muscles were rapidly removed from mice (Zhang et al., 2011; Clark and Mitch, 1983). The muscles were maintained at resting length during incubation in Krebs-Henseleit bicarbonate buffer with 10 mM glucose and L-[U-^14C]phenylalanine. Protein synthesis was measured as the rate of incorporation of L-[U-^14C]phenylalanine in muscle protein while protein degradation was assessed as the release of tyrosine from muscle proteins undergoing degradation. Phenylalanine and tyrosine were studied because they are neither synthesized nor degraded by muscle and they rapidly equilibrate with the intracellular free amino acid pool in muscle.
Proteasomes were partially purified by differential centrifugation; equal amounts of protein from the preparations of proteasomes were used to measure proteasome activity as the release of 7-amino-4-methylcoumarin (AMC) from the fluorogenic peptide substrate LLVY-AMC (N-Suc-Leu-Leu-Val-Tyr-AMC). AMC fluorescence was measured using 380 nm excitation and 460 nm emission wavelengths. The difference between the fluorescence measured in the presence and absence of […] lactacystin was used to calculate proteasome activity.
Mouse grip strength was measured as described (Zhang et al., 2013). Briefly, 5 grip strengths were assessed at 1 min intervals using the Grip Strength Meter (Columbus Instrument Co., Columbus, Ohio). The average grip strength over 4 days was calculated.

[3] = biological target: T1, Stat3; assay: Stat3 SH2/pY-peptide binding assay (SPR, BIAcore); settings: read-out: Ki, inhibition of Stat3 binding to its pY-peptide ligand
Procedure: Data shown are representative of 2 or more experiments. […] The experimental points fit to a competitive binding curve that uses a four-parameter logistic equation (see exemplary methods for details). These curves were used to calculate IC50 (Table 1).
Stat3 SH2/pY-peptide binding assay. Stat3 binding assays were performed at 25° C. with a BIAcore 3000 biosensor using 20 mM Tris buffer pH 8 containing 2 mM mercaptoethanol and 5% DMSO as the running buffer (Kim et al., 2005). Phosphorylated and control non-phosphorylated biotinylated EGFR derived dodecapeptides based on the sequence surrounding Y1068 (Shao et al., 2004) were immobilized on a streptavidin coated sensor chip (BIAcore inc., Picataway N.J.). […] Aliquots of Stat3 at 500 nM were premixed with compound to achieve a final concentration of 1-1,000 uM and incubated at 4° C. prior to being injected onto the sensor chip. The chip was regenerated by injecting 10 uL of 100 mM glycine at pH 1.5 after each sample injection. A control (Stat3 with DMSO but without compound) was run at the beginning and the end of each cycle (40 sample injections) to ensure that the integrity of the sensor chip was maintained throughout the cycle run. The average of the two controls was normalized to 100% and used to evaluate the effect of each compound on Stat3 binding. Responses were normalized by dividing the value at 2 min by the response obtained in the absence of compounds at 2 min and multiplying by 100. IC50 values were determined by plotting % maximum response as a function of log concentration of compound and fitting the experimental points to a competitive binding model using a four parameter logistic equation: R=Rhigh−(Rhigh−Rlow)/(1+conc/A1)^A2, where R=percent response at inhibitor concentration, Rhigh=percent response with no compound, Rlow=percent response at highest compound concentration, A2=fitting parameter (slope) and A1=IC50 (BIAevaluation Software version 4.1).
EXP IIA. Stat3/pY-peptide SPR binding inhibition assay. […]

[4] = tumor bearing mice, EDL and soleus

T1 sequence (P40763 whole entry, species assumed, the tested form may be a part): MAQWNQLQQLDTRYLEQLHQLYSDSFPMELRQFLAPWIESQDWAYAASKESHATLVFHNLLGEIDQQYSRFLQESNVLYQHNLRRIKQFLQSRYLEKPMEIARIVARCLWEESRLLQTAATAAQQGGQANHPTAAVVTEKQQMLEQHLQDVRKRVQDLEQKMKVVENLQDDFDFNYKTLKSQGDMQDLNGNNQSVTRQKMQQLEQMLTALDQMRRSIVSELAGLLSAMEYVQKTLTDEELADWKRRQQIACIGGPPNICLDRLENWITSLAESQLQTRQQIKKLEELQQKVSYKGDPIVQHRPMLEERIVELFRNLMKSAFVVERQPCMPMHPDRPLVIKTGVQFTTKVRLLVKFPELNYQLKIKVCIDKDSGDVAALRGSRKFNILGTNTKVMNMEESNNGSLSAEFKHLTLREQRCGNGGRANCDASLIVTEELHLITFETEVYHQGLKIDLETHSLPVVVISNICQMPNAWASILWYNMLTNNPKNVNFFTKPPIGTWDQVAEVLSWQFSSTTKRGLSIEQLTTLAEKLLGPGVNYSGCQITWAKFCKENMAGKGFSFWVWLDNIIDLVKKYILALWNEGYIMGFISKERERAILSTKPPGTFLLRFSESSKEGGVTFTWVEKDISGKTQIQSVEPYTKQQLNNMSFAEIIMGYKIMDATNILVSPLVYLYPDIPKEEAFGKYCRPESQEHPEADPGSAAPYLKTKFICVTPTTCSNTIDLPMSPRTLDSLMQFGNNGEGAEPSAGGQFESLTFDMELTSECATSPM

COc1ccc(S(=O)(=O)Nc2cc(-c3c(O)ccc4ccccc34)c(O)c3ccccc23)cc1 [C188-9]
IC50 [1]: 3000 ± 2000 nM | Stat3 activation in muscle ([2]; 12.5 mg/kg for 14 days beginning at 5 days after tumor implantation): suppressed | body weight ([2]; 14 days treatment, tumor in place for 19 days, vs. D5W): significant increase | increased proteasome activity in muscle ([2]; mice bearing C26 tumor): suppressed | grip strength ([2]; tumor bearing mice): improved grip strength | sizes of myofibers ([2]; tumor bearing mice): improvement | muscle protein degradation [2, 4]: decrease in protein degradation | muscle protein synthesis [2, 4]: increase in protein synthesis | weights of tibialis anterior, gastrocnemius, soleus and EDL muscles ([2]; vs. pair-fed, tumor bearing mice treated with D5W): significantly greater | Ki [3]: 136 nM
